≈ marks a conversion by molar mass, not a printed value. Entries after “also recorded” stand apart in the source; their conditions may differ. Like-named read-outs stand apart in the source and are kept apart here. Residues, ends and D or L forms follow the SMILES beside them.
Legend:
[1] = test system: B. subtilis DSM402; settings: for μM (concentration used, 1x MIC): Table 2, cells treated with 1x MIC; for concentration (MIC against B. subtilis DSM402): Tab. S13, concentrations represent MIC values
[2] = test system: MurG in B. subtilis TNVS175; assay: MurG localization; type: cell-based, Bacillus subtilis; settings: 1x MIC; 30 min (vancomycin) or 1 h;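 also: normal MurG forms small membrane spots and peptidoglycan inhibition gives large clusters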
[3] = test system: B. subtilis DSM402; assay: Peptidoglycan integrity assay (acetic acid/methanol fixation); settings: 1x MIC; 30 min (cell wall inhibitors) or 60 min
[4] = test system: cell wall biosynthesis in B. subtilis DSM402; assay: Summary of cell wall synthesis experiments; type: cell-based, Bacillus subtilis
[5] = test system: MreB in B. subtilis MW10; assay: MreB mobility assay; type: cell-based, Bacillus subtilis; settings: B. subtilis MW10, 1 h of antibiotic exposure
Procedure: MreB is an actin homologue that forms filamentous structures along the lateral axis of the cell. It moves along the length of the cells in a spiraling pattern thereby driving lateral peptidoglycan synthesis.[36],[37] MreB mobility is sensitive to inhibition of peptidoglycan synthesis and so far, every cell wall synthesis inhibitor we tested abolished MreB movement (see Figure S70 for examples).
Expression of msfGFP-MreB was induced with 0.3% xylose. Pictures were taken after 1 h of antibiotic exposure. Two images of the same field of view were recorded 30 s apart and overlaid in ImageJ to visualize MreB mobility. A perfect overlap (yellow) indicates stalled MreB movement, while distinct red and green foci are indicative of MreB mobility. Scale bar 2 μm.
Fig. S70: MreB motility in B. subtilis MW10 after treatment with different cell wall synthesis inhibitors. Expression of GFP-MreB was induced with 0.3% xylose. Cells were treated with 1x […]
Two images of the same field of view were recorded 30 sec apart and overlaid in ImageJ to visualize MreB mobility. A perfect overlap (yellow) indicates stalled MreB movement while distinct red and green spots are indicative of MreB mobility. Scale bar 2 µm.

[6] = test system: M. tuberculosis (MC26020); assay: microbe, parasite or virus in culture; type: cell-based, Mycobacterium tuberculosis
[7] = test system: E. coli; assay: microbe, parasite or virus in culture; settings: Escherichia coli, read-out: MICC (MIC of the test compound alone)
[8] = test system: E. coli; settings: for FICC (fractional inhibitory concentration of the test compound): MICCcheckerboard/MICC; for MICCcheckerboard (MIC of the test compound in checkerboard assay): combined with mupirocin; for FICM (MICMcheckerboard/MICM): mupirocin alone 64 µg/mL; for MICMcheckerboard (MIC of mupirocin in checkerboard assay): mupirocin combined with the compound of the line
[9] = test system: E. coli (W3110); assay: MIC, microdilution, E. coli W3110; type: cell-based, Escherichia coli; settings: for MIC: Gram-negative strain, average of duplicate experiments, read-out: MIC E. coli (W3110); for concentration (MIC against E. coli W3110): Tab. S11, concentrations represent MIC values
[10] = test system: E. coli W3110; assay: Bacterial cytological profiling (BCP) in E. coli W3110; type: cell-based, Escherichia coli; settings: for DAPI / phase contrast / FM4-64: 1x MIC, 1 h; for DAPI: DNA condensation; for phase contrast: indicates cell lysis; for FM4-64: membrane stain; for gyrase inhibition / membrane damage: interpretation of BCP in E. coli
[11] = test system: norfloxacin-resistant clinical isolate of E. coli; assay: MIC, microdilution, norfloxacin-resistant clinical isolate of E. coli; type: cell-based, Escherichia coli; settings: read-out: MIC E. coli (norfloxacin-resistant strain)
[12] = test system: P. aeruginosa (PAO1); assay: MIC, microdilution, P. aeruginosa PAO1; type: cell-based, Pseudomonas aeruginosa
[13] = test system: K. pneumoniae (ATCC 10031); assay: MIC, K. pneumoniae ATCC 10031; type: cell-based, Klebsiella pneumoniae
[14] = test system: E. coli BCB472; assay: GlpT localization (inner membrane) in E. coli BCB472; settings: 1x MIC, 1 h; GFP-tagged membrane protein
[15] = test system: E. faecalis (ATCC 19433); assay: MIC, E. faecalis ATCC 19433; type: cell-based, Enterococcus faecalis
[16] = test system: S. aureus (ATCC 43300) MRSA; assay: MIC, microdilution, MRSA ATCC 43300; type: cell-based, Staphylococcus aureus; settings: norfloxacin-resistant strain
[17] = test system: B. subtilis DSM402; assay: Bacterial cytological profiling (BCP) in B. subtilis DSM402; type: cell-based, Bacillus subtilis; settings: for DAPI / phase contrast / FM4-64: 1x MIC, 1 h; for DAPI: DNA condensation; for phase contrast: indicates cell lysis; for FM4-64: membrane stain; for gyrase inhibition / membrane damage: interpretation of BCP in B. subtilis
[18] = test system: S. aureus (CCUG1800T); assay: MIC, microdilution, S. aureus CCUG1800T; type: cell-based, Staphylococcus aureus
[19] = read-out: MIC S. aureus (CCUG1800T)

## C[C@@H]1O[C@@H]1P(=O)(O)O [Fos, fosfomycin]
[1]
  μM (concentration used, 1x MIC): 72.43 µM
[2]
  protein localization MurG: patchy/dispersed
[3]
  PG integrity: compromised
[4]
  CWB inhibited?: yes
[5]
  MreB mobility: static with foci

## NNC(=O)c1ccncc1 [INH, isoniazid, reference compound]
[6]; Mycobacterium tuberculosis, read-out: MIC M. tuberculosis (MC26020)
  MIC: 1.82 µM (≈ 0.25 µg/mL)

## C/C(=C\C(=O)OCCCCCCCCC(=O)O)C[C@@H]1OC[C@H](C[C@@H]2O[C@H]2[C@@H](C)[C@H](C)O)[C@@H](O)[C@H]1O [Mup, mupirocin]
[7]
  MIC: 64 µg/mL

## CC(C)C[C@@H]1NC(=O)[C@@H](Cc2ccccc2)NC(=O)[C@H](CCN)NC(=O)[C@@H](NC(=O)[C@H](CCN)NC(=O)[C@@H](N)[C@@H](C)O)CCNC(=O)[C@H]([C@@H](C)O)NC(=O)[C@H](CCN)NC(=O)[C@H](CCN)NC1=O [PolBN, polymyxin B nonapeptide, reference compound] (HELM PEPTIDE1{T.[Dab].[Dab].[Dab].[dF].L.[Dab].[Dab].T}$PEPTIDE1,PEPTIDE1,3:R3-9:R2$$$V2.0; N-terminus assumed)
[8]
  FICI (fractional inhibitory concentration index): 0.0234
  MICC (MIC of the test compound alone): 128 µg/mL
  FICC (fractional inhibitory concentration of the test compound): 0.0078
  MICCcheckerboard (MIC of the test compound in checkerboard assay): 1 µg/mL
  FICM (MICMcheckerboard/MICM): 0.0156
  MICMcheckerboard (MIC of mupirocin in checkerboard assay): 1 µg/mL

## CCn1cc(C(=O)O)c(=O)c2cc(F)c(N3CCN(C(=O)CCl)CC3)cc21 [compound 2]
[9]
  MIC: 6.31 µM (≈ 2.5 µg/mL)
  concentration (MIC against E. coli W3110): 6.31 µM
[10]
  DAPI: condensed
  phase contrast: dark
  FM4-64: smooth
  gyrase inhibition: yes
  membrane damage: no
[11]
  MIC: >1293.54 µM
[12]
  MIC: 192 µM (≈ 76 µg/mL)
[1]
  concentration (MIC against B. subtilis DSM402): 1.89 µM
  μM (concentration used, 1x MIC): 1.89 µM
[13]
  MIC: 121.27 µM (≈ 48 µg/mL)
[14]
  GlpT: smooth
[15]
  MIC: 6.31 µM (≈ 2.5 µg/mL)
[3]
  PG integrity: came close to the cutoff value; also recorded: intact
[8]
  FICC (fractional inhibitory concentration of the test compound): 1.25
  MICCcheckerboard (MIC of the test compound in checkerboard assay): 2.5 µg/mL
  FICM (MICMcheckerboard/MICM): 0.2656
  MICMcheckerboard (MIC of mupirocin in checkerboard assay): 7.8 µg/mL
[8]; average of at least two replicates
  MICC (MIC of the test compound alone): 2 µg/mL
[8]; checkerboard with mupirocin
  Outcome: additive (>0.5 to ≤4.0 as additive (no interaction))
[8]; with mupirocin, FICC+FICM
  FICI (fractional inhibitory concentration index): 1.5156
[4]
  CWB inhibited?: no
[16]
  MIC: 161.69 µM (≈ 64 µg/mL)
[6]
  MIC M. tuberculosis (MC26020): >1293.54 µM
[17]
  DAPI: condensed
  phase contrast: dark
  FM4-64: smooth
  gyrase inhibition: yes
  membrane damage: no
[18]; [19]
  MIC: 2.52 µM (≈ 0.997 µg/mL)

## CCn1cc(C(=O)O)c(=O)c2cc(F)c(N3CCN(C(=O)CNNC(=O)c4ccncc4)CC3)cc21 [compound 16]
[9]
  MIC: 64.45 µM (≈ 32 µg/mL)
[11]; norfloxacin-resistant clinical isolate
  MIC: 32.22 µM (≈ 16 µg/mL)
[12]
  MIC: 515.61 µM (≈ 256 µg/mL)
[1]
  concentration (MIC against B. subtilis DSM402): 2.01 µM
  μM (concentration used, 1x MIC): 2.01 µM
[13]
  MIC: 12.08 µM (≈ 6 µg/mL)
[15]
  MIC: 2.01 µM (≈ 0.998 µg/mL)
[3]
  PG integrity: intact
[4]
  CWB inhibited?: no
[16]
  MIC: 64.45 µM (≈ 32 µg/mL)
[6]
  MIC M. tuberculosis (MC26020): 1 µM (≈ 0.496 µg/mL)
[17]
  DAPI: condensed
  phase contrast: dark
  FM4-64: patchy
  gyrase inhibition: yes
  membrane damage: yes
[18]; Tab. S10, DNA gyrase side, strain not given, values equal S. aureus CCUG1800T of Table 1, read-out: MIC
  MIC: 2.01 µM (≈ 0.998 µg/mL)
[18]; [19]
  MIC: 2.01 µM (≈ 0.998 µg/mL)

## polymyxin B [PolB, reference compound]
[9]
  concentration (MIC against E. coli W3110): 0.83 µM
[10]
  DAPI: dispersed
  phase contrast: dark
  FM4-64: patchy
  gyrase inhibition: no
  membrane damage: yes
[14]
  GlpT: dispersed

## tunicamycin
[1]
  μM (concentration used, 1x MIC): 19.58 µM
[2]
  protein localization MurG: patchy
[3]
  PG integrity: compromised
[4]
  CWB inhibited?: yes
[5]
  MreB mobility: static
